Patent US10626103B2, “Inhibitor of lysine specific demethylase-1” (CELGENE QUANTICEL RESEARCH, INC., priority 2014, dated 2020)

Columns and labels:
full-length human LSD1 = full-length human LSD1 (Homo sapiens (Human), UniProt O60341); test: In vitro enzyme inhibition assay LSD-1 (TR-FRET); type: biochemical; conditions: H3K4me1-biotin peptide
Method: This assay determines the ability of a test compound to inhibit LSD1 demethylase activity.
The enzymatic assay of LSD1 activity is based on Time Resolved-Fluorescence Resonance Energy Transfer (TR-FRET) detection.
Plates were read by EnVision Multilabel Reader in TR-FRET mode (excitation at 320 nm, emission at 615 nm and 665 nm) after 1 hour incubation at room temperature.
The ability of the compounds disclosed herein to inhibit LSD1 activity was quantified and the respective IC50 value was determined.

[1] = test system: CD11b expression in THP-1 (AML) cells; test: LSD1 CD11b cellular assay (flow cytometry); type: cell-based; conditions: Homo sapiens, 96 h, THP-1 cells, 4 days
Method: To analyze LSD1 inhibitor efficacy in cells, a CDL11b flow cytometry assay was performed. LSD1 inhibition induces CD11b expression in THP-1 (AML) cells which can be measured by flow cytometry. […] LSD 1 test compounds were serially diluted in DMSO. The dilutions were added to each well accordingly to a final concentration of 0.2% DMSO. The cells were incubated at 37 degrees Celsius in 5% CO2 for 4 days. 250 μL of each well was transferred to a well in a 96 well round bottom plate. The plate was centrifuged at 1200 rpm at 4 degrees Celsius in a Beckman Coulter Alegra 6KR centrifuge for 5 minutes. The media was removed leaving the cells at the bottom of the wells. The cells were washed in 100 μL cold HBSS (Hank's Balanced Salt Solution) plus 2% BSA (Bovine Serum Albumin) solution and centrifuged at 1200 rpm at 4 degrees Celsius for 5 minutes. The wash was removed. […] The cells were centrifuged and washed two times in 100 μl HBSS plus 2% BSA. After the final spin the cells were resuspended in 100 μL HBSS plus 2% BSA containing 1 ug/mL DAPI (4′,6-diamidino-2-phenylindole). The cells were then analyzed by flow cytometry in a BD FACSAria machine. Cells were analyzed for CD11b expression. The percent of CD11b expressing cells for each inhibitor concentration was used to determine an IC50 curve for each compound analyzed.

CNCCNC(=O)c1cc(-c2ccc(C#N)c(F)c2)c(-c2ccc3nn(C)cc3c2)n1C [Example 32, [4-(4-cyano-3-fluorophenyl)-1-methyl-5-(2-methyl(2H-indazol-5-yl))pyrrol-2-yl]-N-[2-(methylamino)ethyl]carboxamide]
IC50 (full-length human LSD1): < 0.1 µM
IC50 [1]: < 0.1 µM

Cn1cc2cc(-c3c(-c4ccc(C#N)c(F)c4)cc(C(=O)N4CCC[C@@H](N)C4)n3CCCO)ccc2n1 [Example 34, (R)-4-(5-(3-aminopiperidine-1-carbonyl)-1-(3-hydroxypropyl)-2-(2-methyl-2H-indazol-5-yl)-1H-pyrrol-3-yl)-2-fluorobenzonitrile]
IC50 (full-length human LSD1): < 0.1 µM
IC50 [1]: < 0.1 µM

Cn1cc2cc(-c3c(-c4ccc(C#N)c(F)c4)cc(C(=O)N4CCC[C@@H](N)C4)n3CCO)ccc2n1 [Example 35, (R)-4-(5-(3-aminopiperidine-1-carbonyl)-1-(2-hydroxyethyl)-2-(2-methyl-2H-indazol-5-yl)-1H-pyrrol-3-yl)-2-fluorobenzonitrile]
IC50 (full-length human LSD1): < 0.1 µM
IC50 [1]: < 0.1 µM

COCCn1c(C(=O)N2CCC[C@@H](N)C2)cc(-c2ccc(C#N)c(F)c2)c1-c1ccc2nn(C)cc2c1 [Example 36, (R)-4-(5-(3-aminopiperidine-1-carbonyl)-1-(2-methoxyethyl)-2-(2-methyl-2H-indazol-5-yl)-1H-pyrrol-3-yl)-2-fluorobenzonitrile]
IC50 (full-length human LSD1): < 0.1 µM
IC50 [1]: < 0.1 µM

Cn1cc2cc(-c3c(-c4ccc(C#N)c(F)c4)cc(C(=O)N4CCC[C@@H](N)C4)n3C[C@@H](O)CO)ccc2n1 [Example 38, 4-(5-((R)-3-aminopiperidine-1-carbonyl)-1-((R)-2,3-dihydroxypropyl)-2-(2-methyl-2H-indazol-5-yl)-1H-pyrrol-3-yl)-2-fluorobenzonitrile]
IC50 (full-length human LSD1): < 0.1 µM
IC50 [1]: < 0.1 µM

Cn1cc2cc(-c3c(-c4ccc(C#N)c(F)c4)cc(C(=O)N4CCC[C@@H](N)C4)n3C[C@H](O)CO)ccc2n1 [Example 39, 4-(5-((R)-3-aminopiperidine-1-carbonyl)-1-((S)-2,3-dihydroxypropyl)-2-(2-methyl-2H-indazol-5-yl)-1H-pyrrol-3-yl)-2-fluorobenzonitrile]
IC50 (full-length human LSD1): < 0.1 µM
IC50 [1]: < 0.1 µM

Cn1cc2cc(-c3c(-c4ccc(C#N)c(F)c4)cc(C(=O)NC[C@@H]4CCNC4)n3C)ccc2n1 [Example 40, N-[((3R)pyrrolidin-3-yl)methyl][4-(4-cyano-3-fluorophenyl)-1-methyl-5-(2-methyl(2H-indazol-5-yl))pyrrol-2-yl]carboxamide]
IC50 (full-length human LSD1): < 0.1 µM
IC50 [1]: < 0.1 µM

COc1ccc(-c2c(-c3ccc(C#N)c(F)c3)cc(C(=O)N3CCC[C@@H](N)C3)n2CCCC(N)=O)cc1 [Example 42, 4-{5-[((3R)-3-aminopiperidyl)carbonyl]-3-(4-cyano-3-fluorophenyl)-2-(4-methoxyphenyl)pyrrolyl} butanamide]
IC50 (full-length human LSD1): < 0.1 µM
IC50 [1]: < 0.1 µM

Cc1c(C(=O)N2CCC(N)CC2)nc(-c2ccc(C#N)c(F)c2)n1-c1ccc2nn(C)cc2c1 [Example 43, 4-[4-(4-Aminopiperidine-1-carbonyl)-5-methyl-1-(2-methylindazol-5-yl)imidazol-2-yl]-2-fluorobenzonitrile]
IC50 (full-length human LSD1): < 0.1 µM
IC50 [1]: 0.1 to 1 µM

Cc1c(C(=O)N(C)CCN)nc(-c2ccc(C#N)c(F)c2)n1-c1ccc2nn(C)cc2c1 [Example 44, N-(2-Aminoethyl)-2-(4-cyano-3-fluorophenyl)-N,5-dimethyl-1-(2-methylindazol-5-yl)imidazole-4-carboxamide]
IC50 (full-length human LSD1): < 0.1 µM
IC50 [1]: < 0.1 µM

Cc1c(C(=O)NC2CCCNC2)nc(-c2ccc(C#N)c(F)c2)n1-c1ccc2nn(C)cc2c1 (centres unmarked) [Example 45, 2-(4-Cyano-3-fluorophenyl)-5-methyl-1-(2-methylindazol-5-yl)-N-piperidin-3-ylimidazole-4-carboxamide]
IC50 (full-length human LSD1): < 0.1 µM
IC50 [1]: < 0.1 µM

Cc1c(C(=O)NC2CCNC2)nc(-c2ccc(C#N)c(F)c2)n1-c1ccc2nn(C)cc2c1 (centres unmarked) [Example 46, 2-(4-Cyano-3-fluorophenyl)-5-methyl-1-(2-methylindazol-5-yl)-N-pyrrolidin-3-ylimidazole-4-carboxamide]
IC50 (full-length human LSD1): < 0.1 µM
IC50 [1]: < 0.1 µM

Cc1c(C(=O)N2CCC[C@@H](N)C2)nc(-c2ccc(C#N)c(F)c2)n1-c1cc2cn(C)nc2cc1F [Example 47, 4-[4-[(3R)-3-Aminopiperidine-1-carbonyl]-1-(6-fluoro-2-methylindazol-5-yl)-5-methylimidazol-2-yl]-2-fluorobenzonitrile]
IC50 (full-length human LSD1): < 0.1 µM
IC50 [1]: < 0.1 µM

Cc1c(C(=O)N2CC[C@H](N)C2)nc(-c2ccc(C#N)c(F)c2)n1-c1cc(F)c2nn(C)cc2c1 [Example 50, 4-[4-[(3S)-3-Aminopyrrolidine-1-carbonyl]-1-(7-fluoro-2-methylindazol-5-yl)-5-methylimidazol-2-yl]-2-fluorobenzonitrile]
IC50 (full-length human LSD1): < 0.1 µM
IC50 [1]: < 0.1 µM

CN[C@H]1CCN(C(=O)c2nc(-c3ccc(C#N)c(F)c3)n(-c3cc(F)c4nn(C)cc4c3)c2C)C1 [Example 51, 2-Fluoro-4-[1-(7-fluoro-2-methylindazol-5-yl)-5-methyl-4-[(3S)-3-(methylamino)pyrrolidine-1-carbonyl]imidazol-2-yl]benzonitrile]
IC50 (full-length human LSD1): < 0.1 µM
IC50 [1]: < 0.1 µM

Cc1c(C(=O)N[C@@H]2CCCN(C)C2)nc(-c2ccc(C#N)c(F)c2)n1-c1ccc2nn(C)c(Cl)c2c1 [Example 56, 1-(3-Chloro-2-methylindazol-5-yl)-2-(4-cyano-3-fluorophenyl)-5-methyl-N-[(3R)-1-methylpiperidin-3-yl]imidazole-4-carboxamide]
IC50 (full-length human LSD1): < 0.1 µM
IC50 [1]: < 0.1 µM

CN(C)[C@H]1CCN(C(=O)c2cn(-c3ccc4nn(C)c(Cl)c4c3)c(-c3ccc(C#N)c(F)c3)n2)C1 [Example 57, 4-[1-(3-Chloro-2-methylindazol-5-yl)-4-[(3S)-3-(dimethylamino)pyrrolidine-1-carbonyl]imidazol-2-yl]-2-fluorobenzonitrile]
IC50 (full-length human LSD1): < 0.1 µM
IC50 [1]: < 0.1 µM

CN(C)[C@H]1CCN(C(=O)c2nc(-c3ccc(C#N)c(F)c3)n(-c3ccc4nn(C)c(Cl)c4c3)c2F)C1 [Example 58, 4-[1-(3-Chloro-2-methylindazol-5-yl)-4-[(3S)-3-(dimethylamino)pyrrolidine-1-carbonyl]-5-fluoroimidazol-2-yl]-2-fluorobenzonitrile]
IC50 (full-length human LSD1): < 0.1 µM
IC50 [1]: < 0.1 µM

CN1CCC[C@@H](NC(=O)c2cn(-c3ccc4nn(C)c(Cl)c4c3)c(-c3ccc(C#N)c(F)c3)n2)C1 [Example 59, 1-(3-Chloro-2-methylindazol-5-yl)-2-(4-cyano-3-fluorophenyl)-N-[(3R)-1-methylpiperidin-3-yl]imidazole-4-carboxamide]
IC50 (full-length human LSD1): < 0.1 µM
IC50 [1]: < 0.1 µM

Cc1c(C(=O)N[C@@H]2CCCN(C)C2)nc(-c2ccc(C#N)c(F)c2)n1-c1ccc2nn(C)cc2c1 [Example 60, 2-(4-Cyano-3-fluorophenyl)-5-methyl-1-(2-methylindazol-5-yl)-N-[(3R)-1-methylpiperidin-3-yl]imidazole-4-carboxamide]
IC50 (full-length human LSD1): < 0.1 µM
IC50 [1]: < 0.1 µM

Cn1nc2ccc(-n3c(-c4ccc(C#N)c(F)c4)nc(C(=O)N4CCC[C@@H](N)C4)c3F)cc2c1Cl [Example 61, 4-[4-[(3R)-3-Aminopiperidine-1-carbonyl]-1-(3-chloro-2-methylindazol-5-yl)-5-fluoroimidazol-2-yl]-2-fluorobenzonitrile]
IC50 (full-length human LSD1): < 0.1 µM
IC50 [1]: < 0.1 µM

CN[C@H]1CCN(C(=O)c2cn(-c3ccc(OC)c(F)c3)c(-c3ccc(C#N)c(F)c3)n2)C1 [Example 65, 2-Fluoro-4-[1-(3-fluoro-4-methoxyphenyl)-4-[(3S)-3-(methylamino)pyrrolidine-1-carbonyl]imidazol-2-yl]benzonitrile]
IC50 (full-length human LSD1): < 0.1 µM
IC50 [1]: < 0.1 µM

COc1ccc(-n2c(-c3ccc(C#N)c(F)c3)nc(C(=O)N3CCC[C@@H](N)C3)c2Cl)cc1F [Example 66, 4-[4-[(3R)-3-Aminopiperidine-1-carbonyl]-5-chloro-1-(3-fluoro-4-methoxyphenyl)imidazol-2-yl]-2-fluorobenzonitrile]
IC50 (full-length human LSD1): < 0.1 µM
IC50 [1]: < 0.1 µM

CN[C@H]1CCN(C(=O)c2nc(-c3ccc(C#N)c(F)c3)n(-c3ccc(OC)c(F)c3)c2F)C1 [Example 68, 2-Fluoro-4-[5-fluoro-1-(3-fluoro-4-methoxyphenyl)-4-[(3S)-3-(methylamino)pyrrolidine-1-carbonyl]imidazol-2-yl]benzonitrile]
IC50 (full-length human LSD1): < 0.1 µM
IC50 [1]: < 0.1 µM

CN[C@H]1CCN(C(=O)c2nc(-c3ccc(C#N)c(F)c3)n(-c3ccc(OC)cc3)c2C)C1 [Example 69, 2-Fluoro-4-[1-(4-methoxyphenyl)-5-methyl-4-[(3S)-3-(methylamino)pyrrolidine-1-carbonyl]imidazol-2-yl]benzonitrile]
IC50 (full-length human LSD1): < 0.1 µM
IC50 [1]: < 0.1 µM
